The results in this text go back to PMC8959600 (eLife, 2022).

The Tmax is the time at which the peak concentration occurs. A word on the AUC(0-t): it is the area under the concentration-time curve up to a stated or last time point. A word on the Cmax: it is the highest concentration seen after dosing. As usually defined, the bioavailability is dose-corrected exposure relative to a reference, in per cent. Low values mean poor availability, high ones good availability.

Each structure is given as a SMILES string.

The nature of one data set: in vivo. Conditions: female, C57, mouse; for bioavailability: mice, n = 3.
Data set [1] has as its system invasive and non-invasive Salmonella isolates. The experiment in a line: Checkerboard synergy assay (FIC), clinical Salmonella isolates. The format is cell-based. As to conditions: in combination with azithromycin. On the procedure:
(§1) Before initiating drug combination assays, the MIC values for both compounds were determined against Shigella (Sf2457T), Salmonella (St14028), and E. coli (EcDH5a) isolates. […] 20 μM moxifloxacin was used as negative control (100% bacterial growth inhibition) in one column and DMSO as positive control (100% bacterial growth). A total of 25 µl of 1 × 10^6 CFU/mL bacterial culture was added to each well of a 384-well plate (μClear; Greiner Bio‐One). Plates were incubated overnight at 37 °C. Next, 10 µl of resazurin were added and plates were incubated at room temperature for 3 hr. Bacterial growth inhibition was measured by fluorescence in a Envision plate reader (PerkinElmer). All assays were performed in duplicate. Combination studies with clinical isolates were performed in 96-well plates (Greiner) adding 200 μl of 1 × 10^6 CFU/mL bacterial culture and following the same checkboard titration method as described above. The range of final working concentrations of each antimicrobial was adjusted based on the MIC of each selected organism.
MICs were determined for drug A and drug B alone and in combination. […]

A further data set deals with E. coli (EcDH5a). The experiment in a line: Checkerboard synergy assay (FIC), laboratory isolate. The format is cell-based, Escherichia coli. On the procedure:
as §1
MICs were determined for drug A and drug B alone and in combination. […] The sum of FIC was expressed using the following equation: FIC = (MIC of drug A in combination / MIC of drug A alone) + (MIC of drug B in combination / MIC of drug B alone) ([Le Minh et al., 2015]; [Petersen et al., 2006]; [Hall et al., 1983]; [European Committee for Antimicrobial Susceptibility Testing (EUCAST) of the European Society of Clinical Microbiology and Infectious Dieases (ESCMID), 2000]).

Setting [2] is: in combination with LpxC inhibitor PF-5081090.

Consider `C[C@@H](O)[C@H]1C(=O)N2C(C(=O)O)=C(SC3CN(C4=NCCS4)C3)[C@H](C)[C@H]12` [Tebipenem], for which the Tmax in “in vivo” was at most 60 min; in the data set “in vivo” (sc, 39 mg/kg), 15 min. Further, the AUC(0-t) in the data set “in vivo” (39 mg/kg) was determined as 80000 ng·h/mL; in “in vivo” (po, 39 mg/kg) it was 7500 ± 1500 ng·h/mL; in “in vivo” (sc, 39 mg/kg) it was 80400 ± 7700 ng·h/mL. Moreover, the Cmax is 3700 ± 900 ng/mL in “in vivo” (po, 39 mg/kg) and 71000 ± 15300 ng/mL in “in vivo” (sc, 39 mg/kg). Moreover, the bioavailability in the data set “in vivo” (po, 39 mg/kg, Tebipenem PO 39 mg/kg) was about 5%; in the data set “in vivo” (sc, 39 mg/kg, Tebipenem SQ 39 mg/kg) it was 44 ± 4%. The FIC scores in data set [1] is recorded as ~ 0.5. The “interaction (FIC index)” value was “partial synergy” with E. coli (EcDH5a) (setting [2]); “indifference or antagonism” with E. coli (EcDH5a) (in combination with azithromycin); “indifference or partial synergy” with E. coli (EcDH5a) (in combination with ceftriaxone); “indifference or partial synergy” in the data set with E. coli (EcDH5a) (in combination with ciprofloxacin); “indifference or partial synergy” in the data set with E. coli (EcDH5a) (in combination with mecillinam). In the data set on E. coli (EcDH5a) (setting [2]), the “reduction of the MIC against Tebipenem” value is on record as over 10 fold.
